In patent US20040171680A1, “Treating Syndrome X with substituted tetralins and indanes” (priority 2002, published 2004):
Read-outs that look alike come from different tables or passages of the source.

How the values were obtained:
[1] = target: T1, PPARα (Rattus norvegicus, UniProt P37230); assay: HD bDNA Assay (HD gene induction); format: cell-based
T1 construct: H4IIE rat hepatoma cell line was obtained from ATCC; host or cells: H4IIE rat hepatoma cells
T1 sequence (P37230 1-468): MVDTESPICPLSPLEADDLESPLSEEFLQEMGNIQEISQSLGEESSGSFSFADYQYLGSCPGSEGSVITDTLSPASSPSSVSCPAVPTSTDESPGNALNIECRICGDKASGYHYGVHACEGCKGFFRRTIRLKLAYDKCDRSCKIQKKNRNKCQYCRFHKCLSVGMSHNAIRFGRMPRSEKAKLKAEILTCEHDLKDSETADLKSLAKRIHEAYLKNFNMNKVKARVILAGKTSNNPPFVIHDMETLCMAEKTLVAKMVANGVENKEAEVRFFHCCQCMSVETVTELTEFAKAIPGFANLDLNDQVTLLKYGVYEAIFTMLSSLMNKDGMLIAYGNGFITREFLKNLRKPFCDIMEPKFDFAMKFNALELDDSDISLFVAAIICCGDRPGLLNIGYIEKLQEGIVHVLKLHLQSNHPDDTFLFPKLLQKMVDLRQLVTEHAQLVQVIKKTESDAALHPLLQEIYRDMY
Experimental: HD bDNA Assay H4IIE rat hepatoma cell line was obtained from ATCC. Cells were cultured in 175 cm^2 tissue culture flask or seeded in 96-well plate with (high serum content, 10% fetal bovine serum and 10% calf serum) culture medium and maintained at 37° C. and 5% CO2 throughout study. Twenty-four hours after the initial seeding of the 96-well plate by hand (approximate 100,000/well), the HD gene induction assay was initiated. Media was removed and replaced with 100 ul of low serum culture media (5% charcoal/dextran treated calf serum) containing vehicle (DMSO) or test compounds or standard. Cells returned to incubator for 24 hours culture. At the termination of the challenge, 50 ul lysis buffer with HD gene specific CE, LE, BL probes was added directly into each well to initiate the bDNA HD mRNA assay. The branched DNA assay was performed according to the manufacturer's protocol (Bayer Diagnostics; Emeryville. Calif.). At the end of the assay, the luminescence was quantitated in Dynex MLX microtiter plate luminometer. EC50's were determined by non-linear regression with a sigmoidal fit utilizing Graphpad Prism.

[2] = system: db/db mice; assay: Oral dosing in female db/db mice; format: in vivo; details: Mus musculus, 240 h, 1.0 mpk, 10 day oral dosing, % change compared to vehicle
Experimental: The compound was prepared as suspensions in 0.5% hydroxypropylmethylcellulose (Dow Chemical, Midland, Mich.). The dosing volume was 10 mL/kg of body weight. […] Body weight was measured in the mornings on Day 1, prior to dosing, and on Day 12 before bleeding. 18-24 hours after the final dose for each group, the mice were anesthetized with CO2/O2 (70:30) and bled by retro-orbital sinus puncture into micro-tubes containing clog activator and then put in ice. The serum samples were prepared by centrifugation. Serum glucose and triglycerides were determined by using COBAS Mira Plus blood chemistry analyzer (Roche Diagnostics, N.J.). Serum insulin was measured by using ALPCO insulin ELISA kit.
Statistical analysis was performed using the program Prism (Graphpad, Monrovia, Calif.) and performing one-way ANOVA with a Dunnet's multiple comparison test.

[3] = target: T2, PPARδ (Homo sapiens, UniProt Q03181); assay: Transfection Assay for PPARδ Receptors (PPAR-Gal4 / Gal4-Luciferase reporter in HEK293 cells); format: cell-based; details: fold induction; PPARδ standard: FI = 36.1
T2 construct: a Gal4-Luciferase reporter is co-transfected
T2 sequence (Q03181 171-441 limits assumed): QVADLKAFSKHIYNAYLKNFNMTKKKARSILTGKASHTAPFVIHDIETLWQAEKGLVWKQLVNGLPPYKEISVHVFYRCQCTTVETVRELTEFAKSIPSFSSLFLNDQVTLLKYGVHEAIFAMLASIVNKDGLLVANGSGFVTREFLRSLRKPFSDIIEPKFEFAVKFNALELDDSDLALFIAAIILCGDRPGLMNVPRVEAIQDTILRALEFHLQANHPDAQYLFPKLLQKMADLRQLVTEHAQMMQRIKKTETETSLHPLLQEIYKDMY
Experimental: Transfection Assay for PPARδ Receptors
HEK293 cells were grown in DMEM/F-12 Media supplemented with 10% FBS and glutamine (GIBCOBRL). The cells were co-transfected with DNA for PPAR-Gal4 receptor and Gal4-Luciferase Reporter using the DMRIE-C Reagent. On the following day, the DNA-containing medium were replaced with 5% Charcoal treated FBS growth medium. After six hours, cells were seeded in 96 well plate and incubated at 37° C. in CO2 incubator overnight. Cells were challenged by test compounds and incubated for 24 hours at 37° C. in 5% CO2 incubator. Luciferase activity was assayed using the Steady-Glo Luciferase Assay Kit from Promega. DMRIE-C Reagent was purchased from GIBCO Cat. No.10459-014. OPTI-MEM I Reduced Serum Medium was purchased from GIBCO Cat. No. 31985. Steady-Glo Luciferase Assay Kit was obtained from Promega Part# E254B.

[4] = in section F, target not named there, values match the PPARα column, read-out: EC50
[5] = H4IIE rat hepatoma cells, 24 hours, read-out: PPARα EC50

| Compound | EC50 [1, 5] [nM] | other results |
| --- | --- | --- |
| CCN(C(=O)Nc1ccc(OC(F)(F)F)cc1)C1CCc2cc(SC(C)(C)C(=O)O)ccc2C1 (centres unmarked) [Example 1, 2-{6-[1-Ethyl-3-(4-trifluoromethoxyphenyl)ureido]-5,6,7,8-tetrahydronaphthalen-2-ylsulfanyl}-2-methylpropionic acid] |  | EC50 [1, 4]: 23 nM; change in vivo at 1 mg/kg ([2]; read-out: Δ BW): -12%; change in vivo at 1 mg/kg ([2]; read-out: Δ Plasma Glucose): -73%; change in vivo at 1 mg/kg ([2]; read-out: Δ Plasma Insulin): -46%; change in vivo at 1 mg/kg ([2]; read-out: Δ Plasma TG): -52% |
| CCCCCCN(C(=O)Nc1ccc(SC(F)(F)F)cc1)C1Cc2ccc(SC(C)(C)C(=O)O)cc2C1 (centres unmarked) [Example 15, 2-Methyl-2-{2-[1-hexyl-3-(4-trifluoromethylsulfanylphenyl)ureido]indan-5-ylsulfanyl}propionic acid] |  | PPARδ FI [3]: 1.2; EC50 [1, 4]: 123 nM |
| C=CCCCN(C(=O)Nc1ccc(OC(F)(F)F)cc1)C1Cc2ccc(SC(C)(C)C(=O)O)cc2C1 (centres unmarked) [Example 19, 2-Methy-2-{2-[1-pent-4-enyl-3-(4-trifluoromethoxyphenyl)ureido]indan-5-ylsulfanyl}propionic acid] |  | PPARδ FI [3]: 1.4; EC50 [1, 4]: 125 nM |
| CCCCN(C(=O)Nc1ccc(OC(F)(F)F)cc1)C1CCc2cc(SC(C)(C)C(=O)O)ccc2C1 (centres unmarked) [Example 22, 2-{6-[1-Butyl-3-(4-trifluoromethoxyphenyl)ureido]-5,6,7,8-tetrahydronaphthalen-2-ylsulfanyl}-2-methylpropionic acid] |  | EC50 [1, 4]: 219 nM |
| CCCCN(C(=O)Nc1ccc(SC(F)(F)F)cc1)C1CCc2cc(SC(C)(C)C(=O)O)ccc2C1 (centres unmarked) [Example 23, 2-{6-[1-Butyl-3-(4-trifluoromethylsulfanylphenyl)ureido]-5,6,7,8-tetrahydronaphthalen-2-ylsulfanyl}-2-methylpropionic acid] |  | EC50 [1, 4]: 244 nM |
| CCCCCCN(C(=O)Nc1ccc(OC(F)(F)F)cc1)C1CCc2cc(SC(C)(C)C(=O)O)ccc2C1 (centres unmarked) [Example 24, 2-{6-[1-Hexyl-3-(4-trifluoromethoxyphenyl)ureido]-5,6,7,8-tetrahydronaphthalen-2-ylsulfanyl}-2-methylpropionic acid] |  | EC50 [1, 4]: 235 nM |
| CCN(C(=O)Nc1ccc(OC(F)(F)F)c(Br)c1)C1Cc2ccc(SC(C)(C)C(=O)O)cc2C1 (centres unmarked) [Example 25, 2-{2-[3-(3-Bromo-4-trifluoromethoxyphenyl)-1-ethylureido]indan-5-ylsulfanyl}-2-methylpropionic acid] | 208 | PPARδ FI [3]: 4.5 |
| CN(C)c1ccc(NC(=O)N(C)C2Cc3ccc(SC(C)(C)C(=O)O)cc3C2)cc1 (centres unmarked) [Example 27, 2-{2-[3-(4-Dimethylaminophenyl)-1-methylureido]indan-5-ylsulfanyl}-2-methylpropionic acid] | 294 |  |
| CCCCCN(C(=O)Nc1ccc2c(c1)CCC2)C1Cc2ccc(SC(C)(C)C(=O)O)cc2C1 (centres unmarked) [Example 29, 2-[2-(3-Indan-5-yl-1-pentylureido)indan-5-ylsulfanyl}-2-methylpropionic acid] | 382 |  |
| CCCCCN(C(=O)Nc1ccc(C)c([N+](=O)[O-])c1)C1Cc2ccc(SC(C)(C)C(=O)O)cc2C1 (centres unmarked) [Example 30, 2-Methyl-2-{2-[3-(4-methyl-3-nitrophenyl)-1-pentylureido]indan-5-ylsulfanyl} propionic acid] | 385 |  |
| COC(=O)CCCCCN(C(=O)Nc1ccc(C(C)C)cc1)C1Cc2ccc(SC(C)(C)C(=O)O)cc2C1 (centres unmarked) [Example 38, 6-[1-[5-(1-Carboxy-1-methylethylsulfanyl)indan-2-yl]-3-(4-isopropylphenyl)-ureido]hexanoic acid methyl ester] | 950 |  |
| CCCCCCCN(C(=O)Nc1ccc(Cl)c(Cl)c1)C1Cc2ccc(SC(C)(C)C(=O)O)cc2C1 (centres unmarked) [Example 42, 2-{2-[3-(3,4-Dichlorophenyl)-1-heptylureido]indan-5-ylsulfanyl}-2-methylpropionic acid] | 2340 |  |
| CN(C)CCN(C(=O)Nc1ccc(SC(F)(F)F)cc1)C1Cc2ccc(SC(C)(C)C(=O)O)cc2C1 (centres unmarked) [Example 43, 2-{2-[1-(2-Dimethylaminoethyl)-3-(4-trifluoromethylsulfanylphenyl)ureido]indan-5-ylsulfanyl}-2-methylpropionic acid] | 2990 |  |
| CCCCCCCN(C(=O)Nc1cccc(Cl)c1)C1Cc2ccc(SC(C)(C)C(=O)O)cc2C1 (centres unmarked) [Example 44, 2-{2-[3-(3-Chlorophenyl)-1-heptylureido]indan-5-ylsulfanyl}-2-methylpropionic acid] | 2090 |  |
| CCCCCCCN(C(=O)Nc1ccc(OC(F)(F)F)cc1)C1Cc2ccc(SC3(C(=O)O)CCC3)cc2C1 (centres unmarked) [Example 45, 1-{2-[1-Heptyl-3-(4-trifluoromethoxyphenyl)ureido]indan-5-ylsulfanyl}-cyclobutanecarboxylic acid] | 780 |  |

Continued, in another order:

| EC50 [1, 5] [nM] | Compound | other results |
| --- | --- | --- |
| 130 | CCN(C(=O)Nc1cccc(OC(F)(F)F)c1)C1Cc2ccc(SC(C)(C)C(=O)O)cc2C1 (centres unmarked) [Example 26, 2-{2-[1-Ethyl-3-(3-trifluoromethoxyphenyl)ureido]indan-5-ylsulfanyl}-2-methylpropionic acid] | PPARδ FI [3]: 2.1 |
| 497 | CC(C)(Sc1ccc2c(c1)CC(N(Cc1cccc3ccccc13)C(=O)Nc1ccc(OC(F)(F)F)cc1)C2)C(=O)O (centres unmarked) [Example 31, 2-Methyl-2-{2-[1-naphthalen-1 ylmethyl-3-(4-trifuoromethoxyphenyl)-ureido]indan-5-ylsulfanyl}-propionic acid] |  |
| 657 | COCCN(C(=O)Nc1ccc(SC(F)(F)F)cc1)C1Cc2ccc(SC(C)(C)C(=O)O)cc2C1 (centres unmarked) [Example 34, 2-{2-[1-(2-Methoxyethyl)-3-(4-trifluoromethylsulfanylphenyl)ureido]indan-5-ylsulfanyl}-2-methylpropionic acid] |  |
| 796 | CC(C)(Sc1ccc2c(c1)CC(N(CCCC(F)(F)F)C(=O)Nc1ccc(OC(F)(F)F)cc1)C2)C(=O)O (centres unmarked) [Example 36, 2-Methyl-2-{2-[1-(4,4,4-trifluorobutyl)-3-(4-trifluoromethoxyphenyl)ureido]indan-5-ylsulfanyl}propionic acid] |  |
| 1300 | CC(C)(Sc1ccc2c(c1)CC(N(CC1CCCCC1)C(=O)Nc1ccc(OC(F)(F)F)cc1)C2)C(=O)O (centres unmarked) [Example 40, 2-{2-[1-Cyclohexylmethyl-3-(4-trifluoromethoxyphenyl)ureido]indan-5-ylsulfanyl]-2-methylpropionic acid] |  |
| 2210 | CC(C)CN(C(=O)Nc1ccc(OC(F)(F)F)cc1)C1Cc2ccc(SC(C)(C)C(=O)O)cc2C1 (centres unmarked) [Example 41, 2-{2-[1-Isobutyl-3-(4-trifluoromethoxyphenyl)ureido]indan-5-ylsulfanyl}-2-methylpropionic acid] |  |
